# Literature values, collected in PMC8466373, “Plant-Derived and Dietary Hydroxybenzoic Acids—A Comprehensive Study of Structural, Anti-/Pro-Oxidant, Lipophilic, Antimicrobial, and Cytotoxic Activity in MDA-MB-231 and MCF-7 Cell Lines” (Nutrients, 2021).
# pIC50: −log10 of the molar value.
# Legend:
# [1] = system: S. aureus, B. cereus, M. flavus, P. aeruginosa, E. coli, and E. cloacae; settings: all mentioned strains; cited from earlier work
# [2] = system: HepG2 hepatocellular carcinoma cells; settings: 100 µM, incubation time: 4 days; cited from earlier work
# MCF-7 = settings: incubation time: 24 h, cited from earlier work
# MDA-MB-231 cells = system: MDA-MB-231 cells; set-up: method as in PMID 30211078; settings: in 24 h; read-out: IC50, growth of MDA-MB-231 cells; cited from earlier work
# [3] = system: Botrytis cinerea and Rhizopus stolonifer; settings: concentration of 5 mM; cited from earlier work
# A. flavus = settings: concentration of 30 mg/mL; cited from earlier work
# A. fumigatus = settings: concentration of 30 mg/mL; cited from earlier work
# A. niger = settings: concentration of 30 mg/mL; cited from earlier work
structure (smiles),measurement,setting,value
"O=C(O)c1ccc(O)c(O)c1 [3,4-DHB, 3,4-dihydroxybenzoic acid]",MIC,[1],3000 µg/mL
same,HepG2 cells' viability,[2],40%
"O=C(O)c1cc(O)c(O)c(O)c1 [3,4,5-THB, 3,4,5-trihydroxybenzoic acid]","cell proliferation of MCF-7, % of control",MCF-7; 5 μg/mL,42.73 % of control
same,concentration inhibiting 50% of MCF-7 cancer cells,MCF-7,7.5 µg/mL
same,pIC50,MDA-MB-231 cells,~3.82
"O=C(O)c1cc(O)ccc1O [2,5-DHB, 2,5-dihydroxybenzoic acid]",inhibition of spore germination and mycelial growth,[3],completely inhibited
"O=C(O)c1cccc(O)c1O [2,3-DHB, 2,3-Dihydroxybenzoic acid]",zone of inhibition,A. flavus,24 mm
same,zone of inhibition,A. fumigatus,30 mm
same,zone of inhibition,A. niger,22 mm
